# Literature values as cited in US20140057987A1, “Disinfectant Spray with Indicator” (GENESIS LABORATORIES, INC., priority 2010, published 2014).
# Details: colour change of indicator
row,Molecule,Transition pH range
1,Cc1cc(C2(c3cc(C)c(O)c(Br)c3)OS(=O)(=O)c3ccccc32)cc(Br)c1O [Bromocresol purple],5.2-6.8 pH
2,Cc1cc(C2(c3ccc(O)c(C)c3)OS(=O)(=O)c3ccccc32)ccc1O [Cresol Red],7.2-8.8 pH
3,O=S1(=O)OC(c2cc(Br)c(O)c(Br)c2)(c2cc(Br)c(O)c(Br)c2)c2ccccc21 [Bromophenol blue],3.0-4.6 pH
4,Cc1cc(O)c(C(C)C)cc1C1(c2cc(C(C)C)c(O)cc2C)OC(=O)c2ccccc21 [Thymolphthalein],9.3-10.5 pH
5,O=C(O)c1cc(N=Nc2ccc([N+](=O)[O-])cc2)ccc1O [Alizarine Yellow R],10.2-12.0 pH
6,Cc1c(C2(c3cc(C(C)C)c(O)c(Br)c3C)OS(=O)(=O)c3ccccc32)cc(C(C)C)c(O)c1Br [Bromothymol blue],6.0-7.6 pH
7,CN(C)c1ccc(N=Nc2ccccc2)cc1 [Methyl yellow],2.9-4.0 pH
8,O=C1OC(c2ccc(O)cc2)(c2ccc(O)cc2)c2ccccc21 [Phenolphthalein],8.3-10.0 pH
9,Cc1c(C2(c3cc(Br)c(O)c(Br)c3C)OS(=O)(=O)c3ccccc32)cc(Br)c(O)c1Br [Bromocresol green],3.8-5.4 pH
10,Azolitmin,4.5-8.3 pH
11,"CN(C)c1ccc(C(=C2C=CC(=[N+](C)C)C=C2)c2ccc(N(C)C)cc2)cc1 [Gentian violet(Methyl violet 10B), Gentian violet]",0.0-2.0 pH
12,Cc1cc2nc3ccc(N(C)C)cc3nc2cc1N.Cl [Neutral red],6.8-8.0 pH
13,O=C1OC(c2ccc(O)c3ccccc23)(c2ccc(O)c3ccccc23)c2ccccc21 [Naphtholphthalein],7.3-8.7 pH
14,CN(C)c1ccc(N=Nc2ccc(S(=O)(=O)[O-])cc2)cc1.[Na+] [Methyl orange],3.1-4.4 pH
15,Nc1c(/N=N/c2ccc(-c3ccc(/N=N/c4cc(S(=O)(=O)O)c5ccccc5c4N)cc3)cc2)cc(S(=O)(=O)O)c2ccccc12 [Congo red],3.0-5.0 pH

# Same assay, conditions: colour change of indicator; high pH color green
row,Molecule,Transition pH range
1,CN(C)c1ccc(/N=N/c2ccccc2C(=O)O)cc1 [Methyl red],4.5-5.2 pH

# Same assay, conditions: colour change of indicator; high pH color yellow
row,Molecule,Transition pH range
1,CN(C)c1ccc(/N=N/c2ccccc2C(=O)O)cc1 [Methyl red],4.4-6.2 pH

# Same assay, conditions: first transition
row,Molecule,Transition pH range
1,CN(C)c1ccc(C(c2ccccc2)c2ccc(N(C)C)cc2)cc1 [Leucomalachite green],0.0-2.0 pH
2,Cc1cc(O)c(C(C)C)cc1C1(c2cc(C(C)C)c(O)cc2C)OS(=O)(=O)c2ccccc21 [Thymol blue],1.2-2.8 pH

# Same assay, conditions: second transition
row,Molecule,Transition pH range
1,CN(C)c1ccc(C(c2ccccc2)c2ccc(N(C)C)cc2)cc1 [Leucomalachite green],11.6-14.0 pH
2,Cc1cc(O)c(C(C)C)cc1C1(c2cc(C(C)C)c(O)cc2C)OS(=O)(=O)c2ccccc21 [Thymol blue],8.0-9.6 pH
